Results from ChEMBL document CHEMBL4330071 (Eur J Med Chem, 2019).
pIC50, pKd: −log10 of the molar value.

Tests used:
[1] = molecular target: ALK tyrosine kinase receptor (Homo sapiens, UniProt Q9UM73); assay: Inhibition of human ALK assessed as residual activity at 10 uM using poly[Glu:Tyr] (4:1) as substrate preincubated for 20 mins followed by [gamma-33P]-ATP addition and measured after 120 mins by Hotspot assay relative to control
[2] = molecular target: CDC7/DBF4 (Cell division cycle 7-related protein kinase/Activator of S phase kinase) (Homo sapiens) (UniProt Q9UBU7+O00311); assay: Inhibition of human CDC7/DBF4 assessed as residual activity at 10 uM using KTFCGTPEYLAPEVRREPRILSEEEQEMFRDFDYIADWC as substrate preincubated for 20 mins followed by [gamma-33P]-ATP addition and measured after 120 mins by Hotspot assay relative to control; type: protein-complex assay
[3] = molecular target: Cyclin-dependent kinase 5/CDK5 activator 1 (Homo sapiens) (UniProt Q00535+Q15078); assay: Inhibition of human CDK5/p25 assessed as residual activity at 10 uM using histone H1 as substrate preincubated for 20 mins followed by [gamma-33P]-ATP addition and measured after 120 mins by Hotspot assay relative to control; type: protein-complex assay
[4] = molecular target: CDK6/cyclin D1 (Homo sapiens) (UniProt P24385+Q00534); assay: Inhibition of human CDK6/cyclin-D1 assessed as residual activity at 10 uM using RB protein as substrate preincubated for 20 mins followed by [gamma-33P]-ATP addition and measured after 120 mins by Hotspot assay relative to control; type: protein-complex assay
[5] = molecular target: CDK9/cyclin T1 (Homo sapiens) (UniProt O60563+P50750); assay: Inhibition of human CDK9/cyclin-T1 assessed as residual activity at 10 uM using KTFCGTPEYLAPEVRREPRILSEEEQEMFRDFDYIADWC as substrate preincubated for 20 mins followed by [gamma-33P]-ATP addition and measured after 120 mins by Hotspot assay relative to control; type: protein-complex assay
[6] = molecular target: Mitogen-activated protein kinase 1 (Homo sapiens) (UniProt P28482); assay: Inhibition of human ERK2 assessed as residual activity at 10 uM using MBP as substrate preincubated for 20 mins followed by [gamma-33P]-ATP addition and measured after 120 mins by Hotspot assay relative to control
[7] = molecular target: Tyrosine-protein kinase JAK2 (Homo sapiens) (UniProt O60674); assay: Inhibition of human JAK2 assessed as residual activity at 10 uM using poly[Glu:Tyr] (4:1) as substrate preincubated for 20 mins followed by [gamma-33P]-ATP addition and measured after 120 mins by Hotspot assay relative to control
[8] = molecular target: Mitogen-activated protein kinase 8 (Homo sapiens) (UniProt P45983); assay: Inhibition of human JNK1 assessed as residual activity at 10 uM using ATF2 as substrate preincubated for 20 mins followed by [gamma-33P]-ATP addition and measured after 120 mins by Hotspot assay relative to control
[9] = molecular target: Tyrosine-protein kinase ABL1 (Homo sapiens, UniProt P00519, F317I); assay: Binding affinity to human non-phosphorylated ABL1 F317I mutant (S229 to K512 residues) expressed in mammalian expression system after 60 mins by Kinomescan method
[10] = molecular target: Tyrosine-protein kinase ABL1 (Homo sapiens, UniProt P00519, Q252H); assay: Binding affinity to human non-phosphorylated ABL1 Q252H mutant (S229 to K512 residues) expressed in mammalian expression system after 60 mins by Kinomescan method
[11] = molecular target: Tyrosine-protein kinase ABL1 (Homo sapiens, UniProt P00519, T315I); assay: Binding affinity to human phosphorylated ABL1 T315I mutant (S229 to K512 residues) expressed in mammalian expression system after 60 mins by Kinomescan method
[12] = molecular target: Mast/stem cell growth factor receptor Kit (Homo sapiens, UniProt P10721); assay: Binding affinity to wild-type human partial length KIT (I571 to D952 residues) expressed in bacterial expression system after 60 mins by Kinomescan method
[13] = molecular target: Tyrosine-protein kinase ABL1 (Homo sapiens, UniProt P00519); assay: Inhibition of human ABL1 using EAIYAAPFAKKK as substrate preincubated for 20 mins followed by [gamma-33P]-ATP addition and measured after 120 mins by Hotspot assay
[14] = molecular target: Fibroblast growth factor receptor 1 (Homo sapiens, UniProt P11362); assay: Inhibition of human FGFR1 using KKKSPGEYVNIEFG as substrate preincubated for 20 mins followed by [gamma-33P]-ATP addition and measured after 120 mins by Hotspot assay
[15] = molecular target: CDK6/cyclin D1 (Homo sapiens, UniProt Q00534); assay: Inhibition of human CDK6/cyclin-D1 using RB protein as substrate preincubated for 20 mins followed by [gamma-33P]-ATP addition and measured after 120 mins by Hotspot assay; type: protein-complex assay
[16] = test system: K562; assay: Growth inhibition of FLT3 null human K562 cells at 10 uM after 72 hrs by CellTiter-Glo assay relative to control; type: functional; details: K562, 72 h, read-out: GI
[17] = test system: MV4-11; assay: Induction of apoptosis in human MV4-11 cells assessed as viable cells at 0.02 uM after 24 hrs by Annexin V-FITC/propidium iodide staining based flow cytometric analysis (reference value: 95.19%); type: functional; details: MV4-11, 24 h, read-out: Activity
[18] = test system: MV4-11; assay: Induction of apoptosis in human MV4-11 cells assessed as late apoptotic cells at 0.05 uM after 24 hrs by Annexin V-FITC/propidium iodide staining based flow cytometric analysis (reference value: 1.42%); type: functional
[19] = test system: MV4-11; assay: Induction of apoptosis in human MV4-11 cells assessed as early apoptotic cells at 0.1 uM after 24 hrs by Annexin V-FITC/propidium iodide staining based flow cytometric analysis (reference value: 3.39%); type: functional
[20] = test system: MV4-11; assay: Induction of apoptosis in human MV4-11 cells assessed as late apoptotic cells at 0.1 uM after 24 hrs by Annexin V-FITC/propidium iodide staining based flow cytometric analysis (reference value: 1.42%); type: functional
[21] = test system: MV4-11; assay: Induction of apoptosis in human MV4-11 cells assessed as early apoptotic cells at 0.2 uM after 24 hrs by Annexin V-FITC/propidium iodide staining based flow cytometric analysis (reference value: 3.39%); type: functional
[22] = test system: MV4-11; assay: Induction of apoptosis in human MV4-11 cells assessed as viable cells at 0.2 uM after 24 hrs by Annexin V-FITC/propidium iodide staining based flow cytometric analysis (reference value: 95.19%); type: functional; details: MV4-11, 24 h, read-out: Activity
[23] = test system: MV4-11; assay: Induction of apoptosis in human MV4-11 cells assessed as late apoptotic cells at 0.5 uM after 24 hrs by Annexin V-FITC/propidium iodide staining based flow cytometric analysis (reference value: 1.42%); type: functional
[24] = test system: MV4-11; assay: Induction of apoptosis in human MV4-11 cells assessed as viable cells at 1 uM after 24 hrs by Annexin V-FITC/propidium iodide staining based flow cytometric analysis (reference value: 95.19%); type: functional; details: MV4-11, 24 h, read-out: Activity
[25] = Intrinsic clearance in human liver microsomes assessed per mg protein at 1 uM after 5 to 60 mins in presence of NADPH by LC-MS/MS analysis; type: ADME, Microsome; details: read-out: CLH
[26] = Intrinsic clearance in rat liver microsomes assessed per mg protein at 1 uM after 5 to 60 mins in presence of NADPH by LC-MS/MS analysis; type: ADME, Microsome; details: read-out: CLH

Chain of CDK6/cyclin D1 (P24385 whole entry): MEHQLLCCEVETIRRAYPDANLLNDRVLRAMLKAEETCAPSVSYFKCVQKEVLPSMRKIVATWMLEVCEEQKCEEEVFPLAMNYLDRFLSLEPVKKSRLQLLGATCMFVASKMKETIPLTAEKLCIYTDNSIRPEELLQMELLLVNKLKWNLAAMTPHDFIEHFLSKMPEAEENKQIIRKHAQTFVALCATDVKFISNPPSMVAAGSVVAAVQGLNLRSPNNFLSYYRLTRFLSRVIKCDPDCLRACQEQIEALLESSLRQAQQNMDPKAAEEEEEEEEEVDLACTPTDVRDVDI
Chain of CDK6/cyclin D1 (Q00534 whole entry): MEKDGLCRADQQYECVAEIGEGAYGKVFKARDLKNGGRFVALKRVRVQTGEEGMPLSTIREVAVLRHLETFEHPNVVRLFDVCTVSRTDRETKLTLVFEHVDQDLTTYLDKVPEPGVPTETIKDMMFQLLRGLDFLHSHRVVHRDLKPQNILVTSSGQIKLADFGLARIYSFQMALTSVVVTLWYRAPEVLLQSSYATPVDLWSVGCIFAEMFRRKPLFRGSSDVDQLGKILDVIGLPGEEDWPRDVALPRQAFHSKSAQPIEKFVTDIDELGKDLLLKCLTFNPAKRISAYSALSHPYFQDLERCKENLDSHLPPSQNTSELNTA
Chain of Mitogen-activated protein kinase 8 (Homo sapiens) (P45983 whole entry, the tested form may be a part): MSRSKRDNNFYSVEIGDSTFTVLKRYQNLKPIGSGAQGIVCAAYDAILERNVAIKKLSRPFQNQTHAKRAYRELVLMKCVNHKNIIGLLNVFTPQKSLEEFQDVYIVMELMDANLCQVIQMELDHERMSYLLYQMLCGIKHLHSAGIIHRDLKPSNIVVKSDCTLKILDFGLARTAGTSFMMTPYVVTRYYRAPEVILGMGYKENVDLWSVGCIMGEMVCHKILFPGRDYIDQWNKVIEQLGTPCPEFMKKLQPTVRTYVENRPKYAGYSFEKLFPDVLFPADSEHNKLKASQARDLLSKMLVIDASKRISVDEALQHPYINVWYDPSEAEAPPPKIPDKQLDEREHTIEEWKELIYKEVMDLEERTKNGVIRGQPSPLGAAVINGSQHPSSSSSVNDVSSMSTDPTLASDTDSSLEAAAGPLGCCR
Chain of ALK tyrosine kinase receptor (Q9UM73 19-1620 limits assumed): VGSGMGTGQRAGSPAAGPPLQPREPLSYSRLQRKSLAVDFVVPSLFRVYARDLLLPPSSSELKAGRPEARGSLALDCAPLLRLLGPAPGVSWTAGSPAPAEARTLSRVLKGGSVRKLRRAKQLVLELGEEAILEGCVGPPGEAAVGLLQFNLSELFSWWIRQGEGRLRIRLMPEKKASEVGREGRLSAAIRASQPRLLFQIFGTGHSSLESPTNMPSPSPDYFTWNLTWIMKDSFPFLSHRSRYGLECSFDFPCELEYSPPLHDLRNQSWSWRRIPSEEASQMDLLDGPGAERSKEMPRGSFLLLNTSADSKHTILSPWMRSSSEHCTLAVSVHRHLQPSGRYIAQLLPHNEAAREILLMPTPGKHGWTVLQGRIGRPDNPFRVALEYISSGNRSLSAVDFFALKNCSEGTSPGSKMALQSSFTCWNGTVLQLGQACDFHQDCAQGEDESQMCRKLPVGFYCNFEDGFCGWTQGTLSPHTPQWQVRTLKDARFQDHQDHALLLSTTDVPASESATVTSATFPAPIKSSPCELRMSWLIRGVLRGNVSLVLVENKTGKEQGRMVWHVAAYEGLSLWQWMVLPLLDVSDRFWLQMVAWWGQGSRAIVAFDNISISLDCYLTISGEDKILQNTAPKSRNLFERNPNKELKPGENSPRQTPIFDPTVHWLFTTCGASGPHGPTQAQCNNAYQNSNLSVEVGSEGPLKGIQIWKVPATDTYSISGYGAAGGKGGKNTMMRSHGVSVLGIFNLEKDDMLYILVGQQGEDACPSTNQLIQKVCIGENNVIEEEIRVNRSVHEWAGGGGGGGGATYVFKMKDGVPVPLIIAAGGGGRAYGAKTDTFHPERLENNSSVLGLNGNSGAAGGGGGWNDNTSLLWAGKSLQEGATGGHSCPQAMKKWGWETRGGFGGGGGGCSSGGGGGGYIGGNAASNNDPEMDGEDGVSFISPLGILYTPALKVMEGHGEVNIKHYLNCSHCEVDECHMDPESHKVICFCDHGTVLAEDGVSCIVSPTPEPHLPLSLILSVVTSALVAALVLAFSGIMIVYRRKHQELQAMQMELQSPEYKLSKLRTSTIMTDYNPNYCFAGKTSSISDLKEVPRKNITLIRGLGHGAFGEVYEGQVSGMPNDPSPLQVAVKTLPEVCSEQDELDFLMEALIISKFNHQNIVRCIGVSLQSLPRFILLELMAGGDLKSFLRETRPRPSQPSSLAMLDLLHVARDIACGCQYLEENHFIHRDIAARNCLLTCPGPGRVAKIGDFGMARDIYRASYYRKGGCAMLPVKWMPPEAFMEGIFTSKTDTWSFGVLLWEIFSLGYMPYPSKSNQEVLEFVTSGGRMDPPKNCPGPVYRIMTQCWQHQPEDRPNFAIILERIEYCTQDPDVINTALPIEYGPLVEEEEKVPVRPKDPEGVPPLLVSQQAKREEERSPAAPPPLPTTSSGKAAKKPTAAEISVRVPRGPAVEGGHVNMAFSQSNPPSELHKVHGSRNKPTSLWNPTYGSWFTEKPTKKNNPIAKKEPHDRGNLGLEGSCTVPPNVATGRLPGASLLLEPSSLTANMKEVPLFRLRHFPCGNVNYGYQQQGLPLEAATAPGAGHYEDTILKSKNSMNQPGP
Chain of Fibroblast growth factor receptor 1 (P11362 whole entry): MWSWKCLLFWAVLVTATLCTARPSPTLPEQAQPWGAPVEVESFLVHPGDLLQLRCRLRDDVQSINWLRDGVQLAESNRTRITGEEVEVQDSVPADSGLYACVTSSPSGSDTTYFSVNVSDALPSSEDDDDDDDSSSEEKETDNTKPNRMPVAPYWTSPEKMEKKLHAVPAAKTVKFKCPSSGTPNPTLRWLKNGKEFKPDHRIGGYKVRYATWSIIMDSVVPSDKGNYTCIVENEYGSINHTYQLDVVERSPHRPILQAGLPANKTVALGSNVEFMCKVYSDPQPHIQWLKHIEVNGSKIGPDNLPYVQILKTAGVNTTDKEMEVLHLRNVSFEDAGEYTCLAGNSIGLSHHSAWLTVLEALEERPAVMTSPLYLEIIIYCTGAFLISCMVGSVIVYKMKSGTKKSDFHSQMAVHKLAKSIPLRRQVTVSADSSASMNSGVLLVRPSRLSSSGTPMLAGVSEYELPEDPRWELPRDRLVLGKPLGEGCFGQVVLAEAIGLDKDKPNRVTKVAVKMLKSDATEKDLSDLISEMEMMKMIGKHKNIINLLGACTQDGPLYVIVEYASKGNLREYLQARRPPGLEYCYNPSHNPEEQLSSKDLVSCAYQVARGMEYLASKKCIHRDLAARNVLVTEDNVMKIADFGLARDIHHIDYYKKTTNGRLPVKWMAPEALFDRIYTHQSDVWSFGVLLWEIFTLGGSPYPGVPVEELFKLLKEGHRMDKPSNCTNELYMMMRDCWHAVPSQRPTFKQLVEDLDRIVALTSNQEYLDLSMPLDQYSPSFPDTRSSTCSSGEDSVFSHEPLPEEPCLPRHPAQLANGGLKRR
Chain of Tyrosine-protein kinase JAK2 (Homo sapiens) (O60674 whole entry): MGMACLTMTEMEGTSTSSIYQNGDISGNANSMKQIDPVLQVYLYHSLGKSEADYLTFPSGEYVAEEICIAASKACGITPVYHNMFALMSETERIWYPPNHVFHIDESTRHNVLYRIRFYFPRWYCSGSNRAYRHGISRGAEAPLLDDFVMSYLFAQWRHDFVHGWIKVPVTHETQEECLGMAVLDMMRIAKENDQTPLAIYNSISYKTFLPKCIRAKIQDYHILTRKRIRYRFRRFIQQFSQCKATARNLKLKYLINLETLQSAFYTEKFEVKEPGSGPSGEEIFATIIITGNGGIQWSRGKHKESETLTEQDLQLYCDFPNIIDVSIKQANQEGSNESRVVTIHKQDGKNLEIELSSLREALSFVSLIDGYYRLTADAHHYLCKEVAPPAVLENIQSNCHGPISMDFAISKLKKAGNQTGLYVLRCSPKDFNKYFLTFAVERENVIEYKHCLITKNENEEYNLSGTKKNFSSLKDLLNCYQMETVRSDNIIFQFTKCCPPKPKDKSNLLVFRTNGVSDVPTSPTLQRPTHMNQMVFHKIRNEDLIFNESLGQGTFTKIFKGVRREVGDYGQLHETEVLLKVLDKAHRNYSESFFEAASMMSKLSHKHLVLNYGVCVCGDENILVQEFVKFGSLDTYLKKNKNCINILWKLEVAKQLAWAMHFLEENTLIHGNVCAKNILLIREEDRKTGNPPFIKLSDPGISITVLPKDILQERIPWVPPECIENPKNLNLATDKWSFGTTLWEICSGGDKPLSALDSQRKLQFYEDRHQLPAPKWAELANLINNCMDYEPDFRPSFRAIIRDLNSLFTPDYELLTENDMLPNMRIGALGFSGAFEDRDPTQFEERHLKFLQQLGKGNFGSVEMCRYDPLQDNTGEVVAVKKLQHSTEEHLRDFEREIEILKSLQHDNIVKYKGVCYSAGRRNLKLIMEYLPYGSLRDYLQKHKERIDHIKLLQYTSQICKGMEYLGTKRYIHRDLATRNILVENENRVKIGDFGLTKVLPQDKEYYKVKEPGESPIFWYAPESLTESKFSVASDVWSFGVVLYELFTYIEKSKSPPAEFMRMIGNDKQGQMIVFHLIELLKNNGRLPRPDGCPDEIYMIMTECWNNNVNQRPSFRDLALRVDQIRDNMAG
Chain of Mitogen-activated protein kinase 1 (Homo sapiens) (P28482 whole entry): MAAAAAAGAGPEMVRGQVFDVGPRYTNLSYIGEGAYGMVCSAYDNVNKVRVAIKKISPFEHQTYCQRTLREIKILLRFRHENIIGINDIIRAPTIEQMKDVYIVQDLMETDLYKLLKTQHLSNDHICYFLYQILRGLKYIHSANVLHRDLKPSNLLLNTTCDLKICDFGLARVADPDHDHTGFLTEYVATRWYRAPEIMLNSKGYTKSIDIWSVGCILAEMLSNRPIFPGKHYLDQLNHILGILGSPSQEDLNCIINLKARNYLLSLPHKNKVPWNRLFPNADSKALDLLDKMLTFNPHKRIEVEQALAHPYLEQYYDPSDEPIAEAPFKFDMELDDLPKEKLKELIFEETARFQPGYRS

With CN1CCC(Nc2ccc(C(=O)Nc3cc(-c4cc(C#N)cs4)n[nH]3)cc2)CC1 the Activity [1] was 23%, the Activity [2] was 101% and the Activity [3] was 60.4%. It also gave an Activity [4] of 20.1%, an Activity [5] of 68.7% and an Activity [6] of 102%. It also gave an Activity [7] of 80.7%, an Activity [8] of 89.6% and a pKd [9] of less than 5.00. For the same molecule, the pKd [10] was 6.46, the pKd [11] was 6.30 and the pKd [12] was 8.66. It also gave a pIC50 ([13]; read-out: IC50) of 6.03, an IC50 ([13]; read-out: pIC50 (converted)) of 1000 nM and a pIC50 [14] of 6.02. It also gave a pIC50 [15] of 5.51, an inhibition of growth at 10 µM [16] of 1.3% and a viability at 0.02 µM [17] of 68.6%. For the same molecule, the Activity [18] was 14.8%, the Activity [19] was 24.27% and the Activity [20] was 15.97%. The Activity [21] was 25.33%, the viability at 0.2 µM [22] was 48.8% and the Activity [23] was 26.68%. For the same molecule, the viability at 1 µM [24] was 34.5%, the microsomal CLint at 1 µM [25] was 22.4 µL/min/mg and the microsomal CLint at 1 µM [26] was 171 µL/min/mg.
